Measurements from patent US10426773B2, “Systems pharmacology for treating ocular disorders” (Case Western Reserve Univeristy, priority 2011, dated 2019).
Entries after “also recorded” stand apart in the source; their conditions may differ.

Key:
[1] = Quantification of selected drugs in mouse serum and eye by LC-MS; assay type: in vivo, C57BL/6J WT mice
Experimental: C57BL/6J WT mice at 6 weeks of age (Jackson Laboratory) were treated with DOX, GUB, or SQ at a single dose of 10, 2, and 0.5 mg per kilogram, respectively. The compound was dissolved in 50% DMSO in PBS (137 mM NaCl, 2.7 mM KCl, 0.67 mM […]). Next, to precipitate excess proteins, 0.3 ml of methanol was added to both the eye homogenate and 0.1 ml of serum. Samples were vortexed for 30 s followed by centrifugation for 15 min at 16,000 g. Clear supernatants were collected and used directly for LC-MS analysis. 2HPO4/KH2PO4, pH 7.4) and administrated by intraperitoneal injection. Thirty minutes later the mice were anesthetized. Blood samples were collected using the technique of cardiac puncture and subsequently centrifuged (5 min, 16,000 g) to collect serum. Prior to harvesting eyes, mice were intracardially perfused with PBS to minimalize blood contamination. Eye balls were immediately homogenized in 0.1 ml of PBS. The homogenate and serum samples were spiked with 100 pmols of internal standard (IS) (parazosin—2-[4-(2-furoyl)piperazin-1-yl]-6,7-dimethoxyquinazolin-4-amine (Sigma Aldrich) or clenbuterol—(RS)-1-(4-Amino-3,5-dichlorophenyl)-2-(tert-butylamino)ethanol (Sigma Aldrich)) for DOX, GUB or SQ quantification, respectively.
Mass spectrometry (MS) based detection and quantification of DOX, GUB, and SQ was performed with a L×Q linear ion trap mass spectrometer (Thermo Scientific) equipped with an electrospray ionization (ESI) interface and coupled to Agilent 1100 HPLC (Agilent Technologies). Separation of drugs and the internal standards was achieved on a reverse phase C18 Phenomenex HPLC column (250×4.60 mm; 5 μm) by a linear gradient of to 100% acetonitrile in water within 15 min at flow rate of 0.5 ml/min. All solvents contained 0.1% formic acid (v/v). The HPLC effluent was sprayed into the MS via an ESI probe operated in the positive ionization mode. Parameters of ionization and detection were tuned with synthetic standards for the drugs to achieve the highest possible sensitivity. Dox and parazosin (internal standard) were detected by selected reaction monitoring (SRM) using m/z 452.2→344.2 and 384.2→247.1 transitions whereas GUB, SQ and their corresponding IS, clenbuterol, was by fragmentation at m/z 231.1→214.0, 206.1→136.0, and 277.1→259.1, respectively. The elution times for DOX, GUB, and SQ were ˜12.8, 12.3, and 10.8 min, respectively. Both internal standards eluted at 12.0 min (FIG. 34). Calibration curves were calculated based on the linear relationship between ratios of SRM ion intensity peak area corresponding to the selected drug and the IS vs. molar ratios of the compounds in the range of 20-500 pmol (FIG. 34H).

[2] = system: ROS generation in photoreceptors of Abca4−/−Rdh8−/− mice; assay: In vivo detection of ROS (DHE probe) in retinas of light-exposed Abca4−/−Rdh8−/− mice; design: species or system mouse; details: Example 3; DOX 10 mg/kg, GUB 2.0 mg/kg, SQ 0.5 mg/kg ip 30 min prior to light
Experimental: The ROS probe, DHE, at a dose of 20 mg/kg body weight was administered to Abca4^−/−Rdh8^−/− mice via intraperitoneal injection 30 min prior to light exposure. Eye cups obtained after removing the cornea, lens and vitreous body from enucleated eye globes 3 h post light illumination were fixed in 4% paraformaldehyde. Cryosections were prepared from fixed eye cups and cut at 12 am thickness for microscopic assessment of ROS signal fluorescence in the retina.
The ROS probe, DHE, at a dose of 20 mg/kg body weight in 25 μl of DMSO, was administered to Abca4^−/−Rdh8^−/− mice via intraperitoneal injection 1 h prior to light exposure. Eye cups obtained after removing the cornea, lens, and vitreous body from enucleated eye globes 3 h post light illumination were fixed in 4% paraformaldehyde. Cryosections were prepared from fixed eye cups and cut at 12-am thickness for microscopic assessment of ROS fluorescence in the retina with ImageJ software (National Institutes of Health).

[3] = system: Abca4−/−Rdh8−/− mice; assay: Bright light-induced retinal degeneration in Abca4−/−Rdh8−/− mice, ERG retinal function; details: pretreatment before light 10,000 lux 30 min; ERG 7 days to 2 weeks after; listed as DOX

SMILES: COc1cc2nc(N3CCN(C(=O)C4COc5ccccc5O4)CC3)nc(N)c2cc1OC.CS(=O)(=O)O (centres unmarked) [Doxazosin]
- Eye ± SD ([1]; 30 min after a single ip dose: DOX 10, GUB 2, SQ 0.5 mg per kilogram, mice perfused with PBS): 11.0 ± 1.7 pmol/eye
- concentration at 30 min ([1]; C57BL/6J, mouse, serum, intraperitoneal, 30 min after a single ip dose: DOX 10, GUB 2, SQ 0.5 mg per kilogram, read-out: Serum ± SD): 465 ± 128 nM
- amount in eye compared with level in 0.1 mL of serum ([1]; eye volume taken as about 0.1 mL): 5 times lower
- ROS generation in photoreceptors (DHE signal) [2]: decreased
- retinal function by ERG (a-wave and b-wave amplitudes) [3]: substantial preservation of the scotopic ERG response; also recorded: substantial preservation of this response
